Test results reported in patent US4764358A, “Radiolabeled dimethyl branched long chain fatty acid for heart imaging” (The United States of America as represented by the United …, priority 1986, dated 1988).
Like-named read-outs stand apart in the source and are kept apart here. Blank lines part the entries; values can stand above or below the molecule they belong to.

Tests used:
[1] = Triple-label experiment, (123I)DMIPP/(131I)BMIPP/(125I)IPP mixture in fasted rats; format: in vivo, fasted female Fischer rats; conditions: for initial uptake or "extraction" phase (myocardial): DMIPP, BMIPP and IPP compared
Excerpt: Nevertheless, in the present experiment, the mass of each fatty acid injected was very similar to eliminate any effects of possible synergistic action on myocardial uptake.

[2] = Effect of relative BMIPP/IPP mass ratios on biodistribution properties in rats; format: in vivo; conditions: ratios of up to 6:1
Excerpt: Nevertheless, in the present experiment, the mass of each fatty acid injected was very similar to eliminate any effects of possible synergistic action on myocardial uptake. […] Within a few minutes following injection, however, differences in retention are clearly evident in fasted animals.

[3] = Myocardial uptake/retention and heart:blood ratio, DMIPP compared with monomethyl BMIPP and IPP; conditions: after 60 min
Experimental: (§4) Iodine-125 DMIPP was administered in 6% BSA solution to groups of fasted and fed rats. The animals were killed at time periods varying from 5 min to 8 h and selected tissues and aliquots of blood removed and analyzed in a gamma spectrometer.

[4] = rat, in vivo
Experimental: as §4

[5] = Myocardial retention after intravenous administration to unfasted rats; format: in vivo; conditions: first couple of hours after intravenous administration
Excerpt: Dimethyl branching was placed at the beta carbon to compare it with the monomethyl branched analogue and because of ease of synthesis. It is believed that dimethyl branching at the alpha carbon would give similar results.

in vivo = assay: in vivo; parameters: species or system female Fischer rats; conditions: rat, iv; for tissue uptake at 5 min / tissue uptake at 0.5 h / tissue uptake at 1 h / tissue uptake at 2 h / tissue uptake at 4 h / tissue uptake at 8 h: distribution of radioactivity
Experimental: (§1) DISTRIBUTION OF RADIOACTIVITY
(% INJECTED DOSE/GRAM OF TISSUE) IN FASTED
(§2) RATS AT VARIOUS TIMES AFTER INTRAVENOUS ADMINISTRATION OF
(§3) 15-(p-[^125 I]IODOPHENYL)-3,3-DIMETHYLPENTADECANOIC ACID (DMIPP)
Mean and range values for five (5, 30 and 60 min) or four (2, 4 and 8 h)
female Fischer rats. Other tissues that were analyzed include spleen,
as §1
(% INJECTED DOSE/ORGAN OF TISSUE) IN FASTED
as §2, §3
Time after injection; Percent injected dose/organ (range)

SMILES: CC(CCCCCCCCCCCCc1ccc([123I])cc1)CC(=O)O (stereo not drawn) [BMIPP]
initial uptake or "extraction" phase (myocardial) [1]: very similar for these three agents | effect of relative BMIPP/IPP mass ratios on biodistribution properties [2]: insignificant effect | loss (washout) from heart [3]: approximately 40%

SMILES: O=C(O)CCCCCCCCCCCCCCc1ccc([125I])cc1 [IPP, reference compound]
initial uptake or "extraction" phase (myocardial) [1]: very similar for these three agents | effect of relative BMIPP/IPP mass ratios on biodistribution properties [2]: insignificant effect

initial uptake or "extraction" phase (myocardial) [1]: very similar for these three agents | heart-to-blood ratio [4]: 10/1 | heart:blood ratios, in words [4]: much higher heart:blood ratios | loss (washout) from heart [4]: approximately 24% | myocardial uptake [4]: high myocardial uptake | retention in the heart [4]: prolonged retention | t1/2 (heart retention) [4]: 12 h | time it remained measurable (in the heart) [4]: up to 12 hours | mean heart:blood ratios ([4]; 15 min): greater than 10:1 | Blood, distribution of radioactivity (in vivo; 5 min): 8.47 % injected dose/organ | Heart, distribution of radioactivity (in vivo; 5 min): 1.95 % injected dose/organ | Kidneys, distribution of radioactivity (in vivo; 5 min): 1.45 % injected dose/organ | Liver, distribution of radioactivity (in vivo; 5 min): 30.9 % injected dose/organ | Lungs, distribution of radioactivity (in vivo; 5 min): 1.63 % injected dose/organ | Mean Heart:Blood (in vivo; 5 min): 3:1 | Thyroid, distribution of radioactivity (in vivo; 5 min): 0.14 % injected dose/organ | Blood, distribution of radioactivity (in vivo; 30 min): 2.30 % injected dose/organ | Heart, distribution of radioactivity (in vivo; 30 min): 2.09 % injected dose/organ | Kidneys, distribution of radioactivity (in vivo; 30 min): 1.49 % injected dose/organ | Liver, distribution of radioactivity (in vivo; 30 min): 28.8 % injected dose/organ | Lungs, distribution of radioactivity (in vivo; 30 min): 0.99 % injected dose/organ | Mean Heart:Blood (in vivo; 30 min): 12:1 | Thyroid, distribution of radioactivity (in vivo; 30 min): 0.15 % injected dose/organ | Blood, distribution of radioactivity (in vivo; 60 min): 2.41 % injected dose/organ | Heart, distribution of radioactivity (in vivo; 60 min): 2.24 % injected dose/organ | Kidneys, distribution of radioactivity (in vivo; 60 min): 1.51 % injected dose/organ | Liver, distribution of radioactivity (in vivo; 60 min): 32.4 % injected dose/organ | Lungs, distribution of radioactivity (in vivo; 60 min): 0.98 % injected dose/organ | Mean Heart:Blood (in vivo; 60 min): 12.5:1 | Thyroid, distribution of radioactivity (in vivo; 60 min): 0.11 % injected dose/organ | Blood, distribution of radioactivity (in vivo; 120 min): 2.24 % injected dose/organ | Heart, distribution of radioactivity (in vivo; 120 min): 1.99 % injected dose/organ | Kidneys, distribution of radioactivity (in vivo; 120 min): 1.62 % injected dose/organ | Liver, distribution of radioactivity (in vivo; 120 min): 22.8 % injected dose/organ | Lungs, distribution of radioactivity (in vivo; 120 min): 0.87 % injected dose/organ | Mean Heart:Blood (in vivo; 120 min): 12.6:1 | Thyroid, distribution of radioactivity (in vivo; 120 min): 0.17 % injected dose/organ | Blood, distribution of radioactivity (in vivo; 240 min): 2.04 % injected dose/organ | Heart, distribution of radioactivity (in vivo; 240 min): 1.56 % injected dose/organ | Kidneys, distribution of radioactivity (in vivo; 240 min): 1.58 % injected dose/organ | Liver, distribution of radioactivity (in vivo; 240 min): 16.7 % injected dose/organ | Lungs, distribution of radioactivity (in vivo; 240 min): 1.77 % injected dose/organ | Mean Heart:Blood (in vivo; 240 min): 11.2:1 | Thyroid, distribution of radioactivity (in vivo; 240 min): 0.22 % injected dose/organ | Blood, distribution of radioactivity (in vivo; 480 min): 1.59 % injected dose/organ | Heart, distribution of radioactivity (in vivo; 480 min): 1.05 % injected dose/organ | Kidneys, distribution of radioactivity (in vivo; 480 min): 1.34 % injected dose/organ | Liver, distribution of radioactivity (in vivo; 480 min): 11.4 % injected dose/organ | Lungs, distribution of radioactivity (in vivo; 480 min): 0.66 % injected dose/organ | Mean Heart:Blood (in vivo; 480 min): 9.3:1 | Thyroid, distribution of radioactivity (in vivo; 480 min): 0.28 % injected dose/organ | tissue uptake at 5 min (in vivo; Blood): 1.48 %ID/g | tissue uptake at 0.5 h (in vivo; Blood): 0.42 %ID/g | tissue uptake at 1 h (in vivo; Blood): 0.36 %ID/g | tissue uptake at 2 h (in vivo; Blood): 0.35 %ID/g | tissue uptake at 4 h (in vivo; Blood): 0.31 %ID/g | tissue uptake at 8 h (in vivo; Blood): 0.24 %ID/g | tissue uptake at 5 min (in vivo; Heart): 4.67 %ID/g | tissue uptake at 0.5 h (in vivo; Heart): 5.06 %ID/g | tissue uptake at 1 h (in vivo; Heart): 4.49 %ID/g | tissue uptake at 2 h (in vivo; Heart): 4.37 %ID/g | tissue uptake at 4 h (in vivo; Heart): 3.53 %ID/g | tissue uptake at 8 h (in vivo; Heart): 2.24 %ID/g | tissue uptake at 5 min (in vivo; Kidneys): 1.39 %ID/g | tissue uptake at 0.5 h (in vivo; Kidneys): 1.47 %ID/g | tissue uptake at 1 h (in vivo; Kidneys): 1.46 %ID/g | tissue uptake at 2 h (in vivo; Kidneys): 1.41 %ID/g | tissue uptake at 4 h (in vivo; Kidneys): 1.39 %ID/g | tissue uptake at 8 h (in vivo; Kidneys): 1.19 %ID/g | tissue uptake at 5 min (in vivo; Liver): 7.73 %ID/g | tissue uptake at 0.5 h (in vivo; Liver): 7.3 %ID/g | tissue uptake at 1 h (in vivo; Liver): 6.02 %ID/g | tissue uptake at 2 h (in vivo; Liver): 5.32 %ID/g | tissue uptake at 4 h (in vivo; Liver): 3.56 %ID/g | tissue uptake at 8 h (in vivo; Liver): 2.52 %ID/g | tissue uptake at 5 min (in vivo; Lungs): 2.15 %ID/g | tissue uptake at 0.5 h (in vivo; Lungs): 1.42 %ID/g | tissue uptake at 1 h (in vivo; Lungs): 1.17 %ID/g | tissue uptake at 2 h (in vivo; Lungs): 1.12 %ID/g | tissue uptake at 4 h (in vivo; Lungs): 0.97 %ID/g | tissue uptake at 8 h (in vivo; Lungs): 0.79 %ID/g | tissue uptake at 5 min (in vivo; Thyroid): 16.7 %ID/g | tissue uptake at 0.5 h (in vivo; Thyroid): 18.5 %ID/g | tissue uptake at 1 h (in vivo; Thyroid): 15.8 %ID/g | tissue uptake at 2 h (in vivo; Thyroid): 17.9 %ID/g | tissue uptake at 4 h (in vivo; Thyroid): 22.9 %ID/g | tissue uptake at 8 h (in vivo; Thyroid): 27.8 %ID/g
SMILES: CC(C)(CCCCCCCCCCCCc1ccc(I)cc1)CC(=O)O [DMIPP, 15-(p-iodophenyl)-3,3-dimethylpentadecanoic acid]
retention and heart:blood ratios (triple label) ([1]; in comparison to BMIPP and IPP): greater retention and higher heart:blood ratios | myocardial retention, effect of dimethyl branching into the IPP molecule [4]: substantial increase in the myocardial retention | radioiodine in the blood, effect of dimethyl branching into the IPP molecule [4]: dramatic decrease of radioiodine in the blood | myocardial retention [5]: essentially irreversible myocardial retention
